Results published in PMC8397418, “Novel Bis-Thiazole Derivatives: Synthesis and Potential Cytotoxic Activity Through Apoptosis With Molecular Docking Approaches” (Frontiers in Chemistry, 2021).
Entries after “also recorded” stand apart in the source; their conditions may differ.

Legend:
[1] = system: MEF normal mouse embryonic fibroblast; experiment: MTT cytotoxicity assay, MEF; format: cell-based; details: n = 3
[2] = system: KF-28 ovarian cancer cells; experiment: MTT cytotoxicity assay, KF-28; format: cell-based, human; details: Homo sapiens; MTT, 72 h, n = 3; read-out: IC50 KF-28 (Ovarian)
Method: (§1) The synthesized derivatives were screened for their cytotoxic activities against five cancer cell lines (two breast cancer cell lines: MCF-7 and MDA-MB-231, two ovarian cancer cell lines: A2780 and KF-28, and one cervical cancer cell line: Hela). This study was performed using serial concentrations of 25, 50, 100, 150, and 200 µM of each compound using the MTT assay. Percentages of cell viability of the tested compounds with serial concentration against the tested panel of cell lines are depicted in Figure 1, in which there is a decrease in the cell viability with increasing concentrations in a dose–response pattern. […] Therefore, compounds 5a, 5b, and 5f were thought worthwhile to further investigate their effects as either cytotoxic or antiproliferative effects and whether any of them is an inducer of apoptotic cell death in the representative cancer cell lines KF-28 and A2780.
(§2) The human ovarian serous carcinoma cell line KF-28 was kindly provided by Prof. Yoshihiro Kikuchi (Department of Obstetrics and Gynecology, National Defense Medical College, Saitama, Japan), and A2780 cell line was purchased from the ECACC (ECACC 93112519). The cells were maintained in RPMI-1640 (Sigma-Aldrich, United States). The cervical cancer cell line, Hela cells, breast cancer cell line, MCF-7, and MDA-MB-231 were purchased from the ATCC and cultured in DMEM. Both types of media were supplemented with 2 mM L-glutamine (Lonza, Belgium), 10% FBS (Sigma, St. Louis, MO, United States), and 1% penicillin/streptomycin (Lonza, Belgium). All cells were incubated at 37°C in 5% CO2 atmosphere (NuAire). All cancer cell lines were cultured according to the routine tissue culture work as discussed by the Freshney group ([Freshney, 2010]). The cells were plated at a density of 5,000 cells in triplicates in a 96-well plate. On the next day, the cells were treated with the indicated compound(s) at the indicated concentrations in a final volume of 100 μL media. Cell viability was assessed after 72 h using MTT solution (Promega) ([Mosmann, 1983]). 20 μL of the reagent was added to each well, the plate was incubated for 3 h, […] was subsequently measured (570 nm) using a plate reader, and then the IC50 values were calculated using Excel ([Tantawy et al., 2020]).

[3] = system: A2780 ovarian cancer cells; experiment: MTT cytotoxicity assay, A2780; format: cell-based, human; details: Homo sapiens, A2780; MTT, 72 h, n = 3; read-out: IC50 A2780 (Ovarian)
Method: as §1, §2

[4] = system: Hela cervical cancer cells; experiment: MTT cytotoxicity assay, Hela; format: cell-based; details: Homo sapiens, MTT, 72 h, n = 3, read-out: IC50 Hela (Cervical)
Method: as §1, §2

[5] = system: KF-28 cells; experiment: DNA content and cell cycle analysis (PI, flow cytometry); format: cell-based, human; details: 200 µM, 48 h; for Cell cycle phase G1 population: DMSO control 72%
Method: Studying the cell cycle phases by measuring DNA content is a crucial test that helps in evaluating the impact of a given drug(s) on dividing cells and may reflect the mechanism through which this drug(s) affects those cells. […] Compounds 5a, 5b, 5c, 5f, 5g, and 9 were added to similar numbers of cells at 200 µM for 48 h, and then, the different cell cycle phases were assessed by flow cytometric analysis.
The cells were seeded into six-well culture plates (3–5 × 10^5 cells/well) and incubated overnight at 37°C, under 5% CO2. The cells were then treated with indicated compounds for 48 h. Next, media supernatants and the cells were collected and washed with ice-cold PBS. Next, the cells were stained with PI (10 mg/ml) for 30 min and analyzed for DNA contents using flow cytometry analysis using an FL2 (λex/em 535/617 nm) signal detector (ACEA Novocyte™ flow cytometer, ACEA Biosciences, Inc., San Diego, CA, United States). For each sample, 12,000 events are acquired. Cell cycle distribution is calculated using a CytoFLex machine and analyzed by CytExpert software. Flow cytometric methodologies (annexin V/PI staining with cell cycle analyses) are carried out as previously described ([Nafie et al., 2020a]; [Nafie et al., 2020b]; [Gad et al., 2020]).

[6] = system: C-myc in KF-28 cells; experiment: Western blot of C-myc expression; format: cell-based, human; details: two days, vs DMSO
Source text: Pim-1 has been classified as a weak oncogene. However, a very strong synergism with regard to tumorigenicity occurs between Pim-1 and C-myc. This synergism is observed with bitransgenic mice overexpressing C-myc and Pim-1 in lymphoid tissue ([Möröy et al., 1991]). To further validate the simulation and docking data which introduced Pim-1 kinase as a potential target molecule for some of the tested compounds, we decided to check the effect of treatment with the selected compounds on the C-myc protein expression as a downstream target molecule known to be phosphorylated and stabilized by Pim-1 as a kinase ([Zhang et al., 2008]). […] Taking into consideration the fact that Pim-1 phosphorylates C-myc and controls its stability ([Zhang et al., 2008]) may conclude that the reduction of C-myc expression under the indicated compounds is due to the inhibition of Pim-1 activity (Figure 3). Therefore, the speculated inhibition of Pim-1 is supported by the above-mentioned qPCR data (Figure 3) and further supported by C-myc downregulation. Our results agree with the reported one which states that some thiazole derivatives are potent inhibitors against protein kinases including Pim-1 kinase ([Mohareb et al., 2019]).
Cell lysates were prepared by lysing cells in RIPA buffer (10 mM Tris (pH 7.4), 150 mM NaCl, 1% Triton X-100, 1% Na deoxycholate), supplemented with protease inhibitor cocktail (Sigma). Protein concentration of whole cell lysates was determined by the […] using the BSA kit (Pierce), and then equal protein amounts were heated to 95 °C for 5 min with sodium dodecyl sulfate (SDS) sample buffer (25 ml glycerol, 31.2 ml Tris buffer, 7.5 ml SDS, a dash of bromophenol blue/100 ml) and run on 15% SDS polyacrylamide gel electrophoresis (SDS-PAGE). Protein samples were then blotted onto PVDF membranes (Immobilon P, Watford, United Kingdom). The membranes were incubated in blocking solution (5% non-fat milk in PBS) for 1 h and then in primary antibody (anti-human C-myc pAb (Abcam; at dilution of 2:1,000) or GAPDH mAb (Santa Cruz; at dilution of 20:1,000)) overnight. After 3 × 10 min washes in TBS (0.1% Tween-20 in PBS), the membrane was incubated for 1 h at room temperature with horseradish-peroxidase–linked (HRP) secondary anti-rabbit or anti-mouse Ab (1:1,000 dilution in PBS). Signals on the membrane were developed using ECL reagent (Amersham, CA, United States) and then were imaged with the Chemidoc system (Bio-Rad, United States).

[7] = system: MCF-7 breast cancer cells; experiment: MTT cytotoxicity assay, MCF-7; format: cell-based, human; details: Homo sapiens, MCF7; MTT, 72 h, n = 3; read-out: IC50 MCF-7 (Breast)
Method: as §1, §2

| SMILES | IC50 [1] | IC50 [2] | IC50 [3] | IC50 [4] | Cell cycle phase S population [5] | Cell cycle phase G1 population [5] | C-myc protein expression (Western blot) [6] | IC50 [7] |
| --- | --- | --- | --- | --- | --- | --- | --- | --- |
| Cc1[nH]c(=NN=C2CCC(=NN=c3[nH]c(C)c(N=Nc4ccccc4)s3)CC2)sc1N=Nc1ccccc1 [5a, 1,4-Bis((5-phenylazo-4-methylthiazol-2-ylidene)hydrazono)cyclohexane] | 7.08 µM | < 25 µM | 77.9 µM | > 200 µM | 11.4% | 75.9% | observable downregulation | > 200 µM |
| Cc1ccc(N=Nc2sc(=NN=C3CCC(=NN=c4[nH]c(C)c(N=Nc5ccc(C)cc5)s4)CC3)[nH]c2C)cc1 [5b, 1,4-Bis((5-(4-tolylazo)-4-methylthiazol-2-ylidene)hydrazono)cyclohexane] | 2.34 µM | < 25 µM | 94.4 µM | > 200 µM | 4.5% | 85.6% | observable downregulation; also recorded: Appreciated downregulation | > 200 µM |
| Cc1[nH]c(=NN=C2CCC(=NN=c3[nH]c(C)c(N=Nc4ccccc4Cl)s3)CC2)sc1N=Nc1ccccc1Cl [5f, 1,4-Bis((5-(2-chlorophenylazo)-4-methylthiazol-2-ylidene)hydrazono)cyclohexane] | > 200 µM | < 25 µM | < 25 µM | > 200 µM | – | 76.9% | observable downregulation; also recorded: Appreciated downregulation | > 200 µM |
